# Target: GABA-A receptor; anion channel
# Test: Inhibition of GABA-A benzodiazepine receptor
# Assay type: protein-complex assay
row,SMILES,IC50
1,O=C1NC2CCCCCC2N1c1nc2cc(Cl)ccc2o1 (stereo not given),140 nM

# Target: GABA-A receptor; anion channel
# Test: Binding affinity against GABA-A benzodiazepine receptor
# Assay type: protein-complex assay
row,SMILES,Ki
1,Oc1nc2ccccc2n1-c1nc2ncccc2o1,44 nM
2,O=C1NC2CCCCCC2N1c1nc2ccccc2o1 (stereo not given),8 nM
3,COc1ccc2nc(N3C(=O)NC4CCCCCC43)oc2c1 (stereo not given),254 nM
4,O=C1NC2CCCCCC2N1c1nc2ccc(F)c(F)c2o1 (stereo not given),3 nM
5,Oc1nc2cc(F)ccc2n1-c1nc2cccc(F)c2o1,14 nM
6,Cc1ccc2nc(N3C(=O)NC4CCCCCC43)oc2c1 (stereo not given),158 nM
7,O=C1NC2CCCCCC2N1c1nc2cc(F)c(F)cc2o1 (stereo not given),87 nM
8,Oc1nc2cc(F)ccc2n1-c1nc2ccccc2o1,32 nM
9,Oc1nc2ccccc2n1-c1nc2ccccc2o1,54 nM
10,Oc1nc2c(n1-c1nc3cccc(F)c3o1)CCCC2,52 nM
11,COc1ccc2nc(-n3c(O)nc4ccccc43)oc2c1,610 nM
12,COc1ccc2nc(-n3c(O)nc4c3CCCC4)oc2c1,239 nM
13,O=C1NC2CCCCCC2N1c1nc2c(F)cc(F)cc2o1 (stereo not given),65 nM
14,Oc1nc2c(n1-c1nc3ccc(F)c(F)c3o1)CCCC2,21 nM
15,Oc1nc2cccnc2n1-c1nc2ccccc2o1,723 nM
16,Oc1nc2ccc(F)cc2n1-c1nc2cccc(F)c2o1,15 nM
17,O=C1NC2CCCCC2N1c1nc2ncccc2o1 (stereo not given),> 1000 nM
18,Oc1nc2ccccc2c2nc(-c3ccccc3)nn12,4 nM
19,Oc1nc2c(n1-c1nc3ccccc3o1)CCCC2,56 nM
20,O=C1NC2CCCCCC2N1c1nc2cccc(F)c2o1 (stereo not given),5 nM

row,SMILES,Ki
1,O=C1NC2CCCCCC2N1c1nc2ccc(F)cc2o1 (stereo not given),5 nM
2,Oc1nc2ccccc2n1-c1nc2ccc(F)cc2o1,89 nM
3,Cc1ccc2oc(N3C(=O)NC4CCCCCC43)nc2c1 (stereo not given),15 nM
4,COc1ccc2oc(N3C(=O)NC4CCCCCC43)nc2c1 (stereo not given),25 nM
5,Cc1ccc2nc(-n3c(O)nc4ccccc43)oc2c1,303 nM
6,Oc1nc2ccccc2n1-c1nc2cccc(F)c2o1,39 nM
7,Oc1nc2cc(F)ccc2n1-c1nc2ccc(F)cc2o1,25 nM
8,Cn1c(=O)n(-c2nc3ccccc3o2)c2ccccc21,> 10000 nM
9,Oc1nc2c(n1-c1nc3ccc(F)cc3o1)CCCC2,47 nM
10,Oc1nc2c(n1-c1nc3cc(F)ccc3o1)CCCC2,26 nM
11,Oc1nc2ccccc2n1-c1nc2ccc(F)c(F)c2o1,20 nM
12,COc1ccc2oc(-n3c(O)nc4ccccc43)nc2c1,91 nM
13,O=C1NC2CCCCCC2N1c1nc2cc(F)ccc2o1 (stereo not given),5 nM
14,O=C1NC2CCCCCC2N1c1nc2cc(F)cc(F)c2o1 (stereo not given),7 nM
15,Oc1nc2ccccc2n1-c1nc2ccccc2s1,> 10000 nM
16,COc1ccc2oc(-n3c(O)nc4c3CCCC4)nc2c1,81 nM
17,O=C1NC2CCCCCC2N1c1nc2ncccc2o1 (stereo not given),137 nM
18,Oc1nc2ccc(F)cc2n1-c1nc2ccccc2o1,58 nM
19,Oc1nc2ccccc2n1-c1nc2cc(F)ccc2o1,162 nM

# — ChEMBL document CHEMBL1132839, “Substituted 3-(2-benzoxazyl)-benzimidazol-2-(1H)-ones: a new class of GABA(A) brain receptor ligands” (Bioorg Med Chem Lett, 2000)
